This passage reports IC50 results from patent publication US20050014753A1, “Novel compounds and compositions as protein kinase inhibitors” (IRM LLC, priority 2003, published 2005).

What all share (type): cell-based
For one test, the target named is T1, F317L Bcr-abl (Homo sapiens, UniProt P00519, F317L).
T1 construct: expressed in transfected cells; host or cells: Ba/F3 (murine pro-B cells); the other entry of the earlier key: BCR (P11274, Breakpoint cluster region protein)
As to the kind of experiment: Antiproliferative effect on Ba/F3 cells expressing mutant Bcr-abl F317L. The method, then: (§1) Compounds selectively inhibiting the proliferation of these Bcr-abl transformed cells are tested for anti-proliferative activity on Ba/F3 cells expressing either wild type or the mutant forms of Bcr-abl.
(§2) 32D-p210 cells are plated into 96 well TC plates at a density of 15,000 cells per well. 50 μL of two fold serial dilutions of the test compound (Cmax is 40 μM) are added to each well (ST1571 is included as a positive control). After incubating the cells for 48 hours at 37° C., 5% CO2, 15 μL of MTT (Promega) is added to each well and the cells are incubated for an additional 5 hours. The optical density at 570 nm is quantified spectrophotometrically and IC50 values, the concentration of compound required for 50% inhibition, determined from a dose response curve.
(§3) Compounds of the invention are tested for their antiproliferative effect on Ba/F3 cells expressing either wild type or the mutant forms of Bcr-abl (G250E, E255V, T315I, F317L, M351T) that confers resistance or diminished sensitivity to STI571. The antiproliferative effect of these compounds on the mutant-Bcr-abl expressing cells and on the non transformed cells were tested at 10, 3.3, 1.1 and 0.37 μM as described above (in media lacking IL3). The IC50 values of the compounds lacking toxicity on the untransformed cells were determined from the dose response curves obtained as describe above.

The target of the next test is T2, T3151 Bcr-abl (Homo sapiens, UniProt P00519, T315I, cells depend on it).
T2 construct: fused on or other part: P11274 (Breakpoint cluster region protein)
Description: Antiproliferative effect on Ba/F3 cells expressing mutant Bcr-abl T315I. The method, then:
as §1, §2, §3

The next test deals with T3, wild-type Bcr-abl (Homo sapiens, UniProt P00519).
T3 construct: expressed in transfected cells; host or cells: Ba/F3 (murine pro-B cells); the other entry of the earlier key: BCR (P11274, Breakpoint cluster region protein)
As to the kind of experiment: Antiproliferative effect on Ba/F3 cells expressing wild type Bcr-abl. The method, then: as §1, §2, §3

For the next test, the target named is T4, G250E Bcr-abl (Homo sapiens, UniProt P00519, G250E).
T4 construct: expressed in transfected cells; host or cells: Ba/F3 (murine pro-B cells); the other entry of the earlier key: BCR (P11274, Breakpoint cluster region protein)
As to the kind of experiment: Antiproliferative effect on Ba/F3 cells expressing mutant Bcr-abl G250E. On the procedure:
as §1, §2, §3

Another test has as its target T5, E255V Bcr-abl (Homo sapiens, UniProt P00519, E255V).
T5 construct: expressed in transfected cells; host or cells: Ba/F3 (murine pro-B cells); the other entry of the earlier key: BCR (P11274, Breakpoint cluster region protein)
Description: Antiproliferative effect on Ba/F3 cells expressing mutant Bcr-abl E255V. The method, then: as §1, §2, §3

Another test concerns the target T6, M351T Bcr-abl (Homo sapiens, UniProt P00519, M351T).
T6 construct: expressed in transfected cells; host or cells: Ba/F3 (murine pro-B cells); the other entry of the earlier key: BCR (P11274, Breakpoint cluster region protein)
Description: Antiproliferative effect on Ba/F3 cells expressing mutant Bcr-abl M351T. On the procedure: as §1, §2, §3

SMILES strings stand for the structures.

With `NC(=O)c1ccc(-c2cc(-c3cc(Nc4ccc(OC(F)(F)F)cc4)ncn3)ccn2)cc1` [Compound 97], the concentration for half-maximal inhibition (IC50) (commonly the concentration that inhibits the measured activity by half) against F317L Bcr-abl worked out at 4450 nM; on T3151 Bcr-abl it was 5280 nM; against wild-type Bcr-abl, 200 nM; against G250E Bcr-abl, 4780 nM; on E255V Bcr-abl, 250 nM; against M351T Bcr-abl it was 970 nM.
